These results are taken from patent US7576094B2, “Spiro derivatives as lipoxygenase inhibitors” (Eli Lilly and Company, priority 2004, dated 2009).

Experiment [1] deals with T1, human recombinant 5-Lipoxygenase (Homo sapiens, UniProt P09917).
T1 sequence (P09917 1-674): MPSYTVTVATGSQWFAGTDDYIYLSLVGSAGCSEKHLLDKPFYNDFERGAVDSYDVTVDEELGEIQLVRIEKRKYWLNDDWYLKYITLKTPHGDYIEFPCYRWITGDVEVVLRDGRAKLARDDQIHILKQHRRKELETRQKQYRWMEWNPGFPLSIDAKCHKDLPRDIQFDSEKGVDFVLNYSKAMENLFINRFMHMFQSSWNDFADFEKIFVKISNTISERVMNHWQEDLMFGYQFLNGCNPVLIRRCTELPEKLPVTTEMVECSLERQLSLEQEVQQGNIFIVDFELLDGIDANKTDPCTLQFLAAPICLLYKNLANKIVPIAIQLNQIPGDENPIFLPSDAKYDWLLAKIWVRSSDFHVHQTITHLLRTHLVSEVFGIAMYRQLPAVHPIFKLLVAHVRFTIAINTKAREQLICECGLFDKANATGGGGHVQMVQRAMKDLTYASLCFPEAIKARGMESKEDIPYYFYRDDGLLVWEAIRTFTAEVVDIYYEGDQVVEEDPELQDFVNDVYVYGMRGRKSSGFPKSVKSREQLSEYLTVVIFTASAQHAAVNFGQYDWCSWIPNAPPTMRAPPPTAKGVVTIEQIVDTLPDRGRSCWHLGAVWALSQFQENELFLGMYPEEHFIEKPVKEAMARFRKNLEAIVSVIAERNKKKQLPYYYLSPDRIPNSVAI
In words: 5-Lipoxygenase Enzyme Assay. The format is biochemical. The note with it: 70 μM arachidonic acid, 10 minute incubation at room temperature, FOX reagent, absorbance at 620 nm; read-out: inhibition of 5-Lipoxygenase with an IC50. The text has this: This procedure was used for measuring the enzymatic activity of human recombinant 5-Lipoxygenase using a colorimetric method based on the ferric oxidation of xylenol orange.
• 96 well flat bottom microfilter plates (VWR, Catalog # 62402-933 9295) • Lipoxygenase screening assay buffer (Cayman, Catalog # 760710) • Human recombinant 5-Lipoxygenase (Cayman, Catalog # 60402) • Arachidonic Acid (Sigma, Catalog # A3555) • Xylenol orange tetra sodium salt (Aldrich, Catalog # 227854) • Iron (II) sulfate heptahydrate (Sigma, Catalog # F7002) • Sulfuric acid (95-98%) [18 M] • Methanol Procedure
Human recombinant 5-Lipoxygenase (Cayman Cat # 60402) was used in this assay. The test compound and/or vehicle was added to 0.5 μL 5-Lipoxygenase in 50 mM Tris-HCl buffer, pH 7.4. The reaction was initiated by addition of 70 μM arachidonic acid in Tris-HCl buffer, pH 7.4, and terminated after a 10 minute incubation at room temperature by addition of FOX reagent (25 mM sulfuric acid, 100 μM xylenol orange, 100 μM iron (II) sulfate, methanol:water 9:1). The yellow color of acidified xylenol orange was converted to a blue color by the lipid hydroperoxide-mediated oxidation of Fe^2+ ions and the interaction of the resulting Fe^3+ ions with the dye. The complex was allowed to form during a 1 hour incubation at room temperature with shaking. Absorbance of the Fe^3+ complex was then measured at […] using a spectrophotometer.
Negative controls contained enzyme during the incubation step but substrate was not added until after the FOX reagent. Compounds were screened at 5 concentrations in triplicate starting at 10 μM

In experiment [2] the test system is LTB4 production in human whole blood. Nature of the experiment: Inhibition of LTB4 Production in Blood. The format is cell-based. As to conditions: 1 h, 20 μM A23187, 60 minutes at 37° C., LTB4 in plasma by ELISA, read-out: protection against LTB4 at an EC50. Here is the method: • Human whole blood (Na citrate) (Stanford Blood Center) • A23187, (Sigma, Cat# C-7522) • Leukotriene B4 EIA reagents (Cayman Chemical, Cat # 520111) • BWA4C (Sigma, Cat # B7559) Procedure Preparation of A23187:
A23187 was prepared as a 10 mM stock solution in DMSO (aliquots can be stored at −20° C.). On the day of the assay the stock solution was diluted as follows: 70 μL 10 mM stock added to 1.6 mL plasma to give a working concentration of 0.42 mM.
From a 30 mM stock solution in DMSO, test articles were diluted to a working concentration of 600 μM in PBS (i.e. 10 μL stock solution+490 μL PBS). This is the highest concentration (gives a final testing concentration of 30 μM). From this 600 μM solution test articles were serially diluted 1:3 in PBS to give a dose-response curve. 10 μL of each concentration of test article was then added to 4 wells of a 96-well plate (i.e. testing in quadruplicate). A positive control compound, BWA4C was used in every assay.
Human whole blood was added to the plates containing compounds (190 μL per well) and mixed well. The blood was incubated with compound at 37° C. for 15 minutes. Following this incubation, 10 μL of 0.42 mM A23187 was added to each well except the negative control wells to give a final calcium ionophore concentration of 20 μM. The plates were then incubated at 37° C. for 60 minutes. After the incubation period, plates were centrifuged for 15 min at 2000 g at 4° C. in sealed microplate buckets. Plasma was then removed for quantitation of LTB4 levels by ELISA.
LTB4 levels in the plasma were determined using a commercially available ELISA kit from Cayman Chemicals. The ELISA was run according to the manufacturer's instructions. The LTB4 levels in the vehicle control sample were then compared to those in which the test article had been added. From this a percent inhibition of LTB4 production by each concentration of test article was calculated and the IC50 was determined.
A general note: An ELISA detects its analyte on a solid surface through an enzyme-linked reagent.

As to `Cc1c(O)cc2c(c1C)N(c1ccc(O)cc1)C1(CC2)CC1` [1′-(4-hydroxyphenyl)-7′,8′-dimethyl-3′,4′-dihydro-1′H-spiro[cyclopropane-1,2′-quinolin]-6′-ol], the IC50 in experiment [1] is less than 0.3 µM. Also, the EC50 in experiment [2] was less than 10 µM.
For `Cc1c(O)cc2c(c1C)N(c1ccc(N(C)C)nc1)CC1(CCC1)C2` [1′-(6-(dimethylamino)pyridin-3-yl)-7′,8′-dimethyl-2′,4′-dihydro-1′H-spiro[cyclobutane-1,3′-quinolin]-6′-ol], in that order: less than 0.3 µM and less than 10 µM.
Consider `CONCC1Cc2c(cc(C)c(O)c2C)OC12CCC2` (centres unmarked) [3-[(methoxyamino)methyl]-5,7-dimethyl-3,4-dihydrospiro-[chromene-2,1′-cyclobutan]-6-ol], for which the EC50 in experiment [2] is less than 10 µM.
For `Cc1c(C)c2c(c(C)c1O)C(N(C)O)CC1(CCC1)O2` (centres unmarked) [4-[hydroxy(methyl)amino]-5,7,8-trimethyl-3,4-dihydrospiro[chromene-2,1′-cyclobutan]-6-ol], the IC50 in experiment [1] is less than 0.3 µM. The EC50 in experiment [2] was less than 10 µM.
On to `Cc1cc2c(c(C)c1O)C(N(C)O)CC1(CCC1)O2` (centres unmarked) [4-[hydroxy(methyl)amino]-5,7-dimethyl-3,4-dihydrospiro[chromene-2,1′-cyclobutan]-6-ol], for which the EC50 in experiment [2] is less than 10 µM.
`Cc1c(C)c2c(c(C)c1O)C(O)C1(CCC1)CO2` (centres unmarked) [5,7,8-trimethylspiro[chroman-3,1′-cyclobutane]-4,6-diol]: the IC50 in experiment [1] is less than 0.3 µM. Moreover, in experiment [2], the EC50 is less than 10 µM.
For `CCc1cc2c(c(CC)c1O)CCC1(CCC1)O2` [5,7-diethyl-3,4-dihydrospiro[chromene-2,1′-cyclobutan]-6-ol], in that order: less than 0.3 µM and less than 10 µM.
For the compound `Cc1cc2c(c(C)c1O)C(O)CC1(CCC1)O2` (centres unmarked) [5,7-dimethyl-3,4-dihydrospiro[chromene-2,1′-cyclobutane]-4,6-diol], the EC50 in experiment [2] was less than 10 µM.
With `Cc1cc2c(c(C)c1O)C=C(c1nc(C)c(C)[nH]1)C1(CCC1)O2` [5,7-dimethyl-3-(-(4,5-dimethyl-1H-imidazol-2-yl)spiro[chromene-2,1′-cyclobutan]-6-ol], the IC50 in experiment [1] is less than 0.3 µM. Further, the EC50 in experiment [2] was less than 10 µM.
As to `Cc1cc2c(c(C)c1O)C(O)C1(CCC1)CO2` (centres unmarked) [5,7-dimethyl-4H-spiro[chromene-3,1′-cyclobutane]-4,6-diol], the EC50 in experiment [2] was less than 10 µM.
For `CC(C)=CCC/C(C)=C/Cc1c(O)c(C)c(C)c2c1CCC1(CCC1)O2` [5-(3,7-dimethylocta-2,6-dienyl)-7,8-dimethylspiro[chroman-2,1′-cyclobutan]-6-ol], in experiment [1], the IC50 is less than 0.3 µM. Moreover, in experiment [2], the EC50 was less than 10 µM.
The corresponding values for `CCc1c(O)c(C)cc2c1C(NOC)CC1(CCC1)O2` (centres unmarked) [5-ethyl-4-(methoxyamino)-7-methyl-3,4-dihydrospiro[chromene-2,1′-cyclobutan]-6-ol] are less than 0.3 µM and less than 10 µM.
Take `CCc1c(O)c(C(C)C)cc2c1C(O)CC1(CCC1)O2` (centres unmarked) [5-ethyl-7-isopropylspiro[chroman-2,1′-cyclobutane]-4,6-diol]: the EC50 in experiment [2] is less than 10 µM.
Regarding `Cc1cc2c(c(C)c1O)CCC1(CCC1)N2Cc1ccc2ccccc2n1` [5′,7′-dimethyl-1′-(quinolin-2-ylmethyl)-3′,4′-dihydro-1′H-spiro[cyclobutane-1,2′-quinolin]-6′-ol], the IC50 in experiment [1] is less than 0.3 µM. Besides, the 50% effective concentration (EC50) in experiment [2] is less than 10 µM.
For the compound `CCc1cc2c(c(C)c1O)C(NOC)CC1(CCC1)O2` (centres unmarked) [7-ethyl-4-(methoxyamino)-5-methyl-3,4-dihydrospiro[chromene-2,1′-cyclobutan]-6-ol], the IC50 in experiment [1] was less than 0.3 µM. For the same compound, in experiment [2], the EC50 is less than 10 µM.
`CONC1CC2(CCC2)Oc2cc(C(C)C)c(O)c(C)c21` (centres unmarked) [7-isopropyl-4-(methoxyamino)-5-methyl-3,4-dihydrospiro[chromene-2,1′-cyclobutan]-6-ol]: in experiment [1], the concentration for half-maximal inhibition (IC50) is less than 0.3 µM. For the same compound, the EC50 in experiment [2] was less than 10 µM.
The corresponding values for `COC1CC2(CCC2)Oc2cc(C(C)C)c(O)c(C)c21` (centres unmarked) [7-isopropyl-4-methoxy-5-methylspiro[chroman-2,1′-cyclobutan]-6-ol] are less than 0.3 µM and less than 10 µM.
For `Cc1c(O)c(C(C)C)cc2c1C(O)CC1(CCC1)O2` (centres unmarked) [7-isopropyl-5-methylspiro[chroman-2,1′-cyclobutane]-4,6-diol], in that order: less than 0.3 µM and less than 10 µM.
`Cc1c(O)c(C(C)C)cc2c1C(O)C1(CCC1)CO2` (centres unmarked) [7-isopropyl-5-methylspiro[chroman-3,1′-cyclobutane]-4,6-diol]: the EC50 in experiment [2] was less than 10 µM.
The same measure, in the same setting: the same measure for `Cc1c(O)c(C)c2c(c1CO)OC1(CCC1)CC2` [8-(hydroxymethyl)-5,7-dimethyl-3,4-dihydrospiro[chromene-2,1′-cyclobutan]-6-ol]: less than 10 µM.
Take `Cc1c(O)c(C(C)C)c(CO)c2c1CCC1(CCC1)O2` [8-(hydroxymethyl)-7-isopropyl-5-methylspiro[chroman-2,1′-cyclobutan]-6-ol]: in experiment [1], the IC50 is less than 0.3 µM. Also, in experiment [2], the EC50 is less than 10 µM.
As to `CCc1cc2c(c(CC)c1O)[C@H](O)CC1(CCC1)O2` [(R)-5,7-diethylspiro[chroman-2,1′-cyclobutane]-4,6-diol], in experiment [1], the IC50 was less than 0.3 µM. Moreover, the EC50 in experiment [2] was less than 10 µM.
The corresponding values for `Cc1c(O)c(C(C)C)cc2c1[C@H](O)CC1(CCC1)O2` [(R)-7-isopropyl-5-methylspiro[chroman-2,1′-cyclobutane]-4,6-diol] are less than 0.3 µM and less than 10 µM.
As to `CCc1cc2c(c(CC)c1O)[C@@H](O)CC1(CCC1)O2` [(S)-5,7-diethylspiro[chroman-2,1′-cyclobutane]-4,6-diol], the IC50 in experiment [1] is less than 0.3 µM. For the same compound, the EC50 in experiment [2] is less than 10 µM.
For `Cc1c(O)c(C(C)C)cc2c1[C@@H](O)CC1(CCC1)O2` [(S)-7-isopropyl-5-methylspiro[chroman-2,1′-cyclobutane]-4,6-diol], in that order: less than 0.3 µM and less than 10 µM.
For `CCc1c(O)c(CC)c2c(c1CO)OC1(CCC1)CC2` [(Z)-5,7-diethyl-8-(hydroxymethyl)-3,4-dihydrospiro[chromene-2,1′-cyclobutan]-6-ol], in that order: less than 0.3 µM and less than 10 µM.
Take `Cc1ccc(S(=O)(=O)NCCN2CC3(CCC3)Cc3cc(O)c(C)c(C)c32)cc1` [N-(2-(6′-hydroxy-7′,8′-dimethyl-2′,4′-dihydro-1′H-spiro[cyclobutane-1,3′-quinoline]-1′-yl)ethyl)-4-methylbenzenesulfonamide]: the IC50 in experiment [1] is less than 0.3 µM. For the same compound, the EC50 in experiment [2] is less than 10 µM.

One may read the IC50 as the point on the concentration scale where inhibition reaches its midpoint. The term EC50 denotes the concentration giving half of the maximal effect.
